Laboratory results published in patent US9789082B2, “Somatostatin receptor subtype 4 (SSTR4) agonists” (Centrexion Therapeutics Corporation, priority 2013, dated 2017).

Columns and labels:
[1] = molecular target: human Somatostatin 4 receptor (SSTR4) (Homo sapiens (Human), UniProt P31391); experiment: cAMP assay with human somatostatin 4 receptor (hSSTR4 expressing H4 cells); type: cell-based; conditions: cAMP assay, read-out: SSTR4 agonism EC50
Experimental: Camp Assay Method Description for cAMP Assay with Human Somatostatin 4 Receptor
The activation of the SSTR4 receptor (Gi coupled) causes an inhibition of intracellular cAMP after stimulation with Forskolin, which can be quantifiable by use of a suitable assay Kit and an adequate plate reader. This technique is used to characterize pharmacological effects of the SSTR4 receptor agonists by use of hSSTR4 expressing H4 cells.
Compounds are dissolved and diluted in DMSO. The final test solution contains 1% DMSO. […] Cells are centrifuged and suspended in assay buffer (incl. 1:100 diluted Alexa antibody).
For the assay 5 μl of a cell suspension (approximately 5000 cells/well)—incl. Alexa antibody (diluted 1:100) are added into a 384 well MTP microtitre plate excepting one row or column (depending on the plate layout), which is reserved for the standard curve. Then 2 μl of compound sample is added as concentration response curve (e.g. 1e-5 M to 6e-10 M), usually in triplicates. Each assay contains incubations with vehicle controls instead of compound as controls for non-inhibited cAMP generation (100% CTL; ‘high values’) and incubations with 1 μM Somatosatin as controls for full inhibition and background (0% CTL; […]). […] Then the plates are shaken briefly and incubated for 60 min at room temperature. After 60 min 10 μl of the detection mix is added into all wells followed by an additional incubation period of 1 h. The plates are read in a suitable plate reader.
From this ratio, cAMP concentrations are calculated from standard curve and the EC50 is estimated by least square curve fit program.
The EC50 values were obtained with the aid of the above described cAMP ASSAY.

human SSTR4 = human SSTR4 (Homo sapiens (Human), UniProt P31391); experiment: Radioligand binding assay, CHO cell membranes expressing recombinant human SSTR4
Text: (§1) Radioligand Binding Assays
(§2) Method Description for Binding Assays with Human Somatostatin Receptors by Use of CHO Cell Membranes Expressing Recombinant Human SSTR1 or Human SSTR2 or Human SSTR3 or Human SSTR4 or Human SSTR5
(§3) Receptor binding assays refer to a technique in which labeled receptor ligands are used to detect binding to a receptor. In competition experiments test compounds, which are not labeled, compete with the binding side of a labeled ligand. The displacement of the labeled ligand by the test compound leads to a decreased signal.
(§4) For the binding experiments 200 μL of membrane homogenate from one of the following protein amounts is used: hSSTR1 (40 μg/well); hSSTR2 (25 μg/well); hSSTR3 (1.5 μg/well); hSSTR4 (0.5 μg/well); hSSTR5 (25 μg/well). […] The incubation is terminated by filtration with ice cold NaCl 0.9% through polyethyleneimine treated (0.3%) GF/B glass fiber filters using a cell harvester. The protein-bound radioactivity is measured in a suitable reader. The non-specific binding is defined as radioactivity bound in the presence of 1 μM Somatostatin-14 during the incubation period.
(§5) The analysis of the concentration-binding curves is performed by computer-assisted nonlinear least square curve fitting method using the model of one receptor binding site.
(§6) Selectivity data was obtained with the aid of the above described radioligand binding assays.

human SSTR1 = human SSTR1 (Homo sapiens (Human), UniProt P30872); experiment: Radioligand binding assay, CHO cell membranes expressing recombinant human SSTR1
Text: as §1, §2, §3, §4, §5, §6

human SSTR2 = human SSTR2 (Homo sapiens (Human), UniProt P30874); experiment: Radioligand binding assay, CHO cell membranes expressing recombinant human SSTR2
Text: as §1, §2, §3, §4, §5, §6

human SSTR3 = human SSTR3 (Homo sapiens (Human), UniProt P32745); experiment: Radioligand binding assay, CHO cell membranes expressing recombinant human SSTR3
Text: as §1, §2, §3, §4, §5, §6

human SSTR5 = human SSTR5 (Homo sapiens (Human), UniProt P35346); experiment: Radioligand binding assay, CHO cell membranes expressing recombinant human SSTR5
Text: as §1, §2, §3, §4, §5, §6

[2] = Metabolic stability in pooled human liver microsomes (half-life); type: in vitro ADME; conditions: 1 μM test compound; for half-life at 1 μM: pooled human liver microsomes, pH 7.6, 37° C., read-out: Half-life t1/2; for Half-life t1/2: 37° C.
Experimental: The metabolic stability of the compounds according to the invention may be investigated as follows:
The metabolic degradation of the test compound is assayed at 37° C. with pooled human liver microsomes. The final incubation volume of 100 μl per time point contains TRIS buffer pH 7.6 at room temperature (0.1 M), magnesium chloride (5 mM), microsomal protein (1 mg/mL) and the test compound at a final concentration of 1 μM. Following a short preincubation period at 37° C., the reactions are initiated by addition of beta-nicotinamide adenine dinucleotide phosphate, reduced form (NADPH, 1 mM), and terminated by transferring an aliquot into solvent after different time points. After centrifugation (10000 g, 5 min), an aliquot of the supernatant is assayed by LC-MS/MS for the amount of parent compound. The half-life is determined by the slope of the semi-logarithmic plot of the concentration-time profile.

human SSTR1, sequence (P30872 whole entry): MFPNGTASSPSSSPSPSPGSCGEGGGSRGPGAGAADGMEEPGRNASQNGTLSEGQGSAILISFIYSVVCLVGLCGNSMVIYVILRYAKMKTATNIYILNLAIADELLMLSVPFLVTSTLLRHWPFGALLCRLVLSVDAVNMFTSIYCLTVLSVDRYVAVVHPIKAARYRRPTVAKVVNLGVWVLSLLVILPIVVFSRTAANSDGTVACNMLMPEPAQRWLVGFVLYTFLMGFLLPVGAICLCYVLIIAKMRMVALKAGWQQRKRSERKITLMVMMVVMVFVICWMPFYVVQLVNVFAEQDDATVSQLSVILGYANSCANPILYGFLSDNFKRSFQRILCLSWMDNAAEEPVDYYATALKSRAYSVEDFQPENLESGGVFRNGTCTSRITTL
human Somatostatin 4 receptor (SSTR4), sequence (P31391 whole entry): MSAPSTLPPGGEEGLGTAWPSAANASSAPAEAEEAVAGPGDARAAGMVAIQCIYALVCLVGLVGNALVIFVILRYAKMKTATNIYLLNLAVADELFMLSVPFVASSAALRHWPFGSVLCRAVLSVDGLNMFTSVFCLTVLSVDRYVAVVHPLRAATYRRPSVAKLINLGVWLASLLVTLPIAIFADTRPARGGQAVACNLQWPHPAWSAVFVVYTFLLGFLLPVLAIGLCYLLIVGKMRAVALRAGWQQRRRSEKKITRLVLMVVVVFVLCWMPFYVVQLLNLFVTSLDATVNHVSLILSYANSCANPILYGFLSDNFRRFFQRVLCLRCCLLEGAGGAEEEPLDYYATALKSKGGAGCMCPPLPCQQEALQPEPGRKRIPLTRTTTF
human SSTR4, sequence (P31391 whole entry): as above
human SSTR3, sequence (P32745 whole entry): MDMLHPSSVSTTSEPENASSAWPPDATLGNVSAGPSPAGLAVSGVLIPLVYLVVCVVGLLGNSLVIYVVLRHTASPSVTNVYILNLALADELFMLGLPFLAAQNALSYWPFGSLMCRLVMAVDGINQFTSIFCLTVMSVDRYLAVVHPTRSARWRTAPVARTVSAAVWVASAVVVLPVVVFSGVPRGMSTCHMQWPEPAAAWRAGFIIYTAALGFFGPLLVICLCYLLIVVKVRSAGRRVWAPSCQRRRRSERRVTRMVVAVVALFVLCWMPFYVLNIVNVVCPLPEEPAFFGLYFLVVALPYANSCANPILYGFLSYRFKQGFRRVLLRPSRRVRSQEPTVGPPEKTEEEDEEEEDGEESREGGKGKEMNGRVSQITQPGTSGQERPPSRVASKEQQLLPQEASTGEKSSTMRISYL
human SSTR5, sequence (P35346 whole entry): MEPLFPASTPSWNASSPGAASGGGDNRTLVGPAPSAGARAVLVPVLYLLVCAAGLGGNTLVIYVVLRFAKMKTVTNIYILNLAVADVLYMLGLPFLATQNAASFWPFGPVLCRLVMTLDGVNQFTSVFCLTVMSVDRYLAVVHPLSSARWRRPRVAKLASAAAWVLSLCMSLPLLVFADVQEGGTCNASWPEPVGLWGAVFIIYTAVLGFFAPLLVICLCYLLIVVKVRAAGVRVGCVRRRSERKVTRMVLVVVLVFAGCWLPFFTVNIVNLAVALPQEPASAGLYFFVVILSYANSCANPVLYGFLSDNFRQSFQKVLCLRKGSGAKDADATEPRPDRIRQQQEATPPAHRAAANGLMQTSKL
human SSTR2, sequence (P30874 whole entry): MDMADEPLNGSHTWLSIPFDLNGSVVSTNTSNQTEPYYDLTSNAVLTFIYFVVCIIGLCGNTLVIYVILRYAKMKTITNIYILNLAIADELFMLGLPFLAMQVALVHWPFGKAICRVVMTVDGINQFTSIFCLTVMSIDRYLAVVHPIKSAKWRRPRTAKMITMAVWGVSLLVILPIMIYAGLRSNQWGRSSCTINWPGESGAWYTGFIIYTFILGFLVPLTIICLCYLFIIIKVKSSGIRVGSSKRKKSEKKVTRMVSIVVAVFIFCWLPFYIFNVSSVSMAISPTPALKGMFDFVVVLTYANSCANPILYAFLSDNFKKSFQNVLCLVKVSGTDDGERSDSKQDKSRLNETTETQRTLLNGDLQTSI

Row | SMILES | EC50 [1] | Ki (human SSTR4) | Ki (human SSTR1) | Ki (human SSTR2) | Ki (human SSTR3) | Ki (human SSTR5) | half-life at 1 μM [2] | Half-life t1/2 [2]
1 | CC(C)(COc1nccc2ccccc12)NC(=O)[C@H]1[C@@H]2CNC[C@@H]21 [Example 56] | 5.5 nM | 100 nM | 3460 nM | > 9610 nM | > 8630 nM | > 9850 nM | > 2.17 h | 
2 | CC(C)(NC(=O)[C@H]1[C@@H]2CNC[C@@H]21)c1noc2c(F)cccc12 [Example 101] | 1.2 nM | 46.2 nM | > 9090 nM | > 9600 nM | > 8600 nM | > 9850 nM | > 2.17 h | 
3 | CC(C)(NC(=O)[C@H]1[C@@H]2CNC[C@@H]21)c1ccnc2ccccc12.Cl [Example 21] | 0.7 nM | 10.8 nM | > 8910 nM | > 9590 nM | > 8580 nM | > 9850 nM | > 2.17 h | 
4 | CC(C)(NC(=O)[C@H]1[C@@H]2CNC[C@@H]21)c1n[nH]c2ccccc12 [Example 94] |  | 15.9 nM | > 9480 nM | > 9630 nM | > 8690 nM | > 9770 nM |  | >2.17 h
5 | Cc1ncc(C(C)(C)NC(=O)[C@H]2[C@@H]3CNC[C@@H]32)c2ccccc12 [Example 80] | 0.3 nM | 1.2 nM | 508 nM | > 9630 nM | > 8710 nM | > 9860 nM | > 2.17 h | 
6 | Cc1cccc2c(C(C)(C)NC(=O)[C@H]3[C@@H]4CNC[C@@H]43)n[nH]c12 [Example 93] |  |  | 7030 nM | > 9630 nM | > 8690 nM | > 9770 nM |  | >2.17 h
7 | Cc1cc2ccccc2c(C(C)(C)NC(=O)[C@H]2[C@@H]3CNC[C@@H]32)n1.Cl [Example 22] | 0.4 nM | 3.7 nM | 848 nM | > 9590 nM |  | > 9850 nM | > 2.17 h | 
8 | CC(C)(COc1cnccc1C1CC1)NC(=O)[C@H]1[C@@H]2CNC[C@@H]21 [Example 57] | 16.3 nM |  |  |  |  |  | > 2.17 h | 
9 | CC(C)(NC(=O)[C@H]1[C@@H]2CNC[C@@H]21)c1noc2ccccc12 [Example 51] | 7.4 nM |  |  |  |  |  | > 2.17 h | 
10 | CC(C)(NC(=O)[C@H]1[C@@H]2CNC[C@@H]21)c1n[nH]c2c(F)cccc12 [Example 109] | 0.3 nM |  |  |  |  |  | > 2.17 h | 
11 | Cn1nc(C(C)(C)NC(=O)[C@H]2[C@@H]3CNC[C@@H]32)c2cccnc21 [Example 32] | 9.9 nM |  |  |  |  |  | > 2.17 h | 
12 | CC(C)(NC(=O)[C@H]1[C@@H]2CNC[C@@H]21)c1ccc(Cl)c(Cl)c1.Cl [Example 8] | 2.8 nM |  |  |  |  |  | > 2.17 h | 
13 | CC(C)(NC(=O)[C@H]1[C@@H]2CNC[C@@H]21)c1nc(C2CC2)c2c(F)cccn12 [Example 149] | 1 nM |  |  |  |  |  | > 2.17 h | 
14 | Cc1cccn2c(C3(NC(=O)[C@H]4[C@@H]5CNC[C@@H]54)CC3)ncc12 [Example 145] | 0.9 nM |  |  |  |  |  | > 2.17 h | 
15 | CC(NC(=O)[C@H]1[C@@H]2CNC[C@@H]21)c1nn(C)c2c(Cl)cccc12 (stereo partly drawn) [Example 114] | 4.7 nM |  |  |  |  |  | > 2.17 h | 
16 | Cn1nc(C(C)(C)NC(=O)[C@H]2[C@@H]3CNC[C@@H]32)c2cccc(F)c21 [Example 105] | 0.4 nM |  |  |  |  |  | > 2.17 h | 
17 | Cc1cc(F)cnc1OCC(C)(C)NC(=O)[C@H]1[C@@H]2CNC[C@@H]21 [Example 48] | 3.7 nM |  |  |  |  |  | > 2.17 h | 
18 | Cn1nc(C(C)(C)NC(=O)[C@H]2[C@@H]3CNC[C@@H]32)c2cccc(C(F)(F)F)c21 [Example 76] | 0.8 nM |  |  |  |  |  | > 2.17 h | 
19 | Cc1cccc2c(C(C)(C)NC(=O)[C@H]3[C@@H]4CNC[C@@H]43)nn(C)c12 [Example 107] |  |  | 4300 nM | > 9600 nM | > 8600 nM | > 9850 nM | > 2.17 h | 

Row | SMILES | EC50 [1] | Ki (human SSTR4) | Ki (human SSTR1) | Ki (human SSTR2) | Ki (human SSTR3) | Ki (human SSTR5) | half-life at 1 μM [2] | Half-life t1/2 [2]
20 | CC(C)(COc1nnccc1C(F)(F)F)NC(=O)[C@H]1[C@@H]2CNC[C@@H]21 [Example 58] | 22 nM |  |  |  |  |  | > 2.17 h | 
21 | Cc1cc(C(C)(C)NC(=O)[C@H]2[C@@H]3CNC[C@@H]32)c2ccccc2n1 [Example 33] | 4.6 nM |  |  |  |  |  | > 2.17 h | 
22 | CC(C)(NC(=O)[C@H]1[C@@H]2CNC[C@@H]21)c1ncc2c(F)cccn12.Cl [Example 133] | 7.1 nM |  |  |  |  |  | > 2.17 h | 
23 | CC(C)(NC(=O)[C@H]1[C@@H]2CNC[C@@H]21)c1ncccc1C(F)(F)F.Cl [Example 23] | 17.5 nM |  |  |  |  |  | > 2.17 h | 
24 | Cc1ccc(C(C)(C)NC(=O)[C@H]2[C@@H]3CNC[C@@H]32)n2ccnc12 [Example 83] | 11 nM |  |  |  |  |  | > 2.17 h | 
25 | CC(C)(NC(=O)[C@H]1[C@@H]2CNC[C@@H]21)c1nc(C(F)(F)F)nc2ccccc12 [Example 139] | 10.9 nM |  |  |  |  |  | > 2.17 h | 
26 | CC(C)(NC(=O)[C@H]1[C@@H]2CNC[C@@H]21)c1ncnc2c(Cl)cccc12 [Example 156] | 7.4 nM |  |  |  |  |  | > 2.17 h | 
27 | Cn1nc(C(C)(C)NC(=O)[C@H]2[C@@H]3CNC[C@@H]32)c2c(F)cccc21 [Example 74] | 1.6 nM |  |  |  |  |  | 0.6 h | 
28 | Cc1nc(C(C)(C)NC(=O)[C@H]2[C@@H]3CNC[C@@H]32)n2ccccc12 [Example 45] | 1.2 nM |  |  |  |  |  | > 2.17 h | 
29 | CC(C)(NC(=O)[C@H]1[C@@H]2CNC[C@@H]21)c1noc2c(C(F)(F)F)cccc12 [Example 102] | 2.3 nM |  |  |  |  |  | > 2.17 h | 
30 | CC(C)(NC(=O)[C@H]1[C@@H]2CNC[C@@H]21)C1CCc2ccccc2O1.Cl (stereo partly drawn) [Example 28] | 11.3 nM |  |  |  |  |  | > 2.17 h | 
31 | CC(C)(COc1cccnc1C(F)(F)F)NC(=O)[C@H]1[C@@H]2CNC[C@@H]21.Cl [Example 18] | 20.4 nM |  |  |  |  |  | > 2.17 h | 
32 | Cc1ccccc1OCC(C)(C)NC(=O)[C@H]1[C@@H]2CN(C)C[C@@H]21.Cl [Example 71] | 26.9 nM |  |  |  |  |  | 2 h | 
33 | Cc1ccncc1OCC(C)(C)NC(=O)[C@H]1[C@@H]2CNC[C@@H]21 [Example 38] | 27.8 nM |  |  |  |  |  | > 2.17 h | 
34 | CC(C)(NC(=O)[C@H]1[C@@H]2CNC[C@@H]21)c1cnc2ccccn12.Cl [Example 20] | 8.5 nM |  |  |  |  |  | > 2.17 h | 
35 | CC(C)(NC(=O)[C@H]1[C@@H]2CNC[C@@H]21)c1nc(C2CC2)c2ccccn12.Cl [Example 120] | 1.9 nM |  |  |  |  |  | > 2.17 h | 
36 | CC(C)(NC(=O)[C@H]1[C@@H]2CNC[C@@H]21)c1cnn2c1CCCC2 [Example 168] | 47.3 nM |  |  |  |  |  | > 2.17 h | 
37 | CC(C)(COc1ccccc1C(F)(F)F)NC(=O)[C@H]1[C@@H]2CNC[C@@H]21.Cl [Example 12] | 0.6 nM |  |  |  |  |  | > 2.17 h | 
